Ki data for 20 compounds are collected here from patent publication US8796289B2 (AbbVie Inc., priority 2011, dated 2014).

Chain of GST-tagged-Wee1 kinase (P30291 whole entry): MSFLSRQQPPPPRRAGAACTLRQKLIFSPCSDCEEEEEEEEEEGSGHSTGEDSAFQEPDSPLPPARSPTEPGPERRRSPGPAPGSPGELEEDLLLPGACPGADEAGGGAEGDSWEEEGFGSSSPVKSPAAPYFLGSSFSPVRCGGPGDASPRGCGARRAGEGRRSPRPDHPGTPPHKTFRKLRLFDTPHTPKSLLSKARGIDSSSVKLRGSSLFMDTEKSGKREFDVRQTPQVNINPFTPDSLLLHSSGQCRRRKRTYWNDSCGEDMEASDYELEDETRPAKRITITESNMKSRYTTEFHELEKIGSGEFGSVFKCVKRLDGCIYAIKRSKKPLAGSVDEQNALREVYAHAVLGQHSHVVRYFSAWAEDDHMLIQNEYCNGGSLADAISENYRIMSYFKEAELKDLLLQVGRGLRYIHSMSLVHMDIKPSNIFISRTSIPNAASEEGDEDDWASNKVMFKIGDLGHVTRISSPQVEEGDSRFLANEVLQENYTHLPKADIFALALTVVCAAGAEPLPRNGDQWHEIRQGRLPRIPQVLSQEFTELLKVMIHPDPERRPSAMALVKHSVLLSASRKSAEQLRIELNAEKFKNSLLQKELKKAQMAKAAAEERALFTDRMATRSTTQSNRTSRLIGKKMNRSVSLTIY

In this experiment the target is GST-tagged-Wee1 kinase (Homo sapiens, UniProt P30291). The experiment can be described thus: Wee1 time-resolved fluorescence equilibrium binding assay (displacement of Oregon Green-labeled ATP-competitive kinase probe). Here is the method:
Wee1 kinase was assayed using a time-resolved fluorescence equilibrium binding assay monitoring displacement of a rapidly reversible Oregon Green-labeled ATP-competitive kinase probe (N-(2-(2-(2-(4-(4-(5-chloro-4-(2-(1-hydroxycyclobutyl)thiazol-5-yl)-1H-pyrrolo[2,3-b]pyridin-2-yl)phenyl)piperazin-1-yl)ethoxy)ethoxy)ethyl)-2′,7′-difluoro-3′,6′-dihydroxy-3-oxo-3H-spiro[isobenzofuran-1,9′-xanthene]-5-carboxamide) by competitive Wee1 inhibitors.
Take `O=c1c2cnc(Nc3ccc(N4CCNCC4)cc3)nc2c(-c2nccs2)nn1-c1ncccc1Cl` [Example 347, 6-(3-chloropyridin-2-yl)-2-{[4-(piperazin-1-yl)phenyl]amino}-8-(1,3-thiazol-2-yl)pyrimido[4,5-d]pyridazin-5(6H)-one]: the affinity, expressed as Ki, was 6.5 nM.
With `CN1CCN(c2ccc(Nc3ncc4c(=O)n(-c5ncccc5Cl)nc(-c5ccccn5)c4n3)cc2)CC1` [Example 348, 6-(3-chloropyridin-2-yl)-2-{[4-(4-methylpiperazin-1-yl)phenyl]amino}-8-(pyridin-2-yl)pyrimido[4,5-d]pyridazin-5(6H)-one], the Ki – broadly, a measure of affinity in units of concentration, obtained from inhibition or displacement – was 1.8 nM.
In turn, `Cc1nn(-c2ncccc2Cl)c(=O)c2cnc(Nc3ccc4c(c3)CNCC43CC3)nc12` [Example 349, 6-(3-chloropyridin-2-yl)-2-(2′,3′-dihydro-1′H-spiro[cyclopropane-1,4′-isoquinolin]-7′-ylamino)-8-methylpyrimido[4,5-d]pyridazin-5(6H)-one] returned a Ki of 0.5 nM.
To `Cn1cnc(-c2nn(-c3ncccc3Cl)c(=O)c3cnc(Nc4ccc(N5CCNCC5)cc4)nc23)c1` [Example 350, 6-(3-chloropyridin-2-yl)-8-(1-methyl-1H-imidazol-4-yl)-2-{[4-(piperazin-1-yl)phenyl]amino}pyrimido[4,5-d]pyridazin-5(6H)-one] belongs 1.8 nM.
The compound `Cc1nn(-c2ncccc2Cl)c(=O)c2cnc(Nc3ccc4c(c3)CN(C)CC43CC3)nc12` [Example 351, 6-(3-chloropyridin-2-yl)-8-methyl-2-[(2′-methyl-2′,3′-dihydro-1′H-spiro[cyclopropane-1,4′-isoquinolin]-7′-yl)amino]pyrimido[4,5-d]pyridazin-5(6H)-one] returned a Ki of 1.1 nM.
Take `Cn1cnc(-c2nn(-c3ncccc3Cl)c(=O)c3cnc(Nc4ccc5c(c4)CNCC54CC4)nc23)c1` [Example 352, 6-(3-chloropyridin-2-yl)-2-(2′,3′-dihydro-1′H-spiro[cyclopropane-1,4′-isoquinolin]-7′-ylamino)-8-(1-methyl-1H-imidazol-4-yl)pyrimido[4,5-d]pyridazin-5(6H)-one]: the affinity, expressed as Ki, was 12 nM.
`Cn1cnc(-c2nn(-c3ncccc3Cl)c(=O)c3cnc(Nc4ccc5c(c4)CNCC5)nc23)c1` [Example 353, 6-(3-chloropyridin-2-yl)-8-(1-methyl-1H-imidazol-4-yl)-2-(1,2,3,4-tetrahydroisoquinolin-7-ylamino)pyrimido[4,5-d]pyridazin-5(6H)-one] showed a Ki of 16 nM.
With `CN1CCN(c2ccc(Nc3ncc4c(=O)n(-c5c(Cl)cccc5Cl)nc(-c5nccn5C)c4n3)cc2)CC1` [Example 354, 6-(2,6-dichlorophenyl)-8-(1-methyl-1H-imidazol-2-yl)-2-{[4-(4-methylpiperazin-1-yl)phenyl]amino}pyrimido[4,5-d]pyridazin-5(6H)-one] the figure was 740 nM.
Turning to `Cn1ccnc1-c1nn(-c2c(Cl)cccc2Cl)c(=O)c2cnc(Nc3ccc(N4CCNCC4)cc3)nc12` [Example 355, 6-(2,6-dichlorophenyl)-8-(1-methyl-1H-imidazol-2-yl)-2-{[4-(piperazin-1-yl)phenyl]amino}pyrimido[4,5-d]pyridazin-5(6H)-one], the Ki worked out at 2.4 nM.
To `Cn1ccnc1-c1nn(-c2c(Cl)cccc2Cl)c(=O)c2cnc(Nc3ccc4c(c3)CNCC43CC3)nc12` [Example 356, 6-(2,6-dichlorophenyl)-2-(2′,3′-dihydro-1′H-spiro[cyclopropane-1,4′-isoquinolin]-7′-ylamino)-8-(1-methyl-1H-imidazol-2-yl)pyrimido[4,5-d]pyridazin-5(6H)-one] belongs 1 nM.
To `CN1Cc2cc(Nc3ncc4c(=O)n(-c5c(Cl)cccc5Cl)nc(-c5nccn5C)c4n3)ccc2C2(CC2)C1` [Example 357, 6-(2,6-dichlorophenyl)-2-[(2′-methyl-2′,3′-dihydro-1′H-spiro[cyclopropane-1,4′-isoquinolin]-7′-yl)amino]-8-(1-methyl-1H-imidazol-2-yl)pyrimido[4,5-d]pyridazin-5(6H)-one] belongs 0.87 nM.
On to `CN1CCN(c2ccc(Nc3ncc4c(=O)n(-c5c(Cl)cncc5Cl)nc(-c5ccncc5)c4n3)cc2)CC1` [Example 358, 6-(3,5-dichloropyridin-4-yl)-2-{[4-(4-methylpiperazin-1-yl)phenyl]amino}-8-(pyridin-4-yl)pyrimido[4,5-d]pyridazin-5(6H)-one], for which affinity was put at a Ki of 0.47 nM.
In turn, `CN1Cc2cc(Nc3ncc4c(=O)n(-c5c(Cl)cncc5Cl)nc(-c5cn(C)cn5)c4n3)ccc2C2(CC2)C1` [Example 359, 6-(3,5-dichloropyridin-4-yl)-2-[(2′-methyl-2′,3′-dihydro-1′H-spiro[cyclopropane-1,4′-isoquinolin]-7′-yl)amino]-8-(1-methyl-1H-imidazol-4-yl)pyrimido[4,5-d]pyridazin-5(6H)-one] returned an inhibition constant (Ki) of 5 nM.
With `CN1CCN(c2ccc(Nc3ncc4c(=O)n(-c5c(Cl)cncc5Cl)nc(-c5cncs5)c4n3)cc2)CC1` [Example 360, 6-(3,5-dichloropyridin-4-yl)-2-{[4-(4-methylpiperazin-1-yl)phenyl]amino}-8-(1,3-thiazol-5-yl)pyrimido[4,5-d]pyridazin-5(6H)-one] the figure was 2.4 nM; with `CN1CCN(c2ccc(Nc3ncc4c(=O)n(-c5c(Cl)cncc5Cl)nc(-c5cn(C)cn5)c4n3)cc2)CC1` [Example 361, 6-(3,5-dichloropyridin-4-yl)-8-(1-methyl-1H-imidazol-4-yl)-2-{[4-(4-methylpiperazin-1-yl)phenyl]amino}pyrimido[4,5-d]pyridazin-5(6H)-one], 4.4 nM.
To `CN1CCN(c2ccc(Nc3ncc4c(=O)n(-c5c(Cl)cncc5Cl)nc(-c5ccccn5)c4n3)cc2)CC1` [Example 362, 6-(3,5-dichloropyridin-4-yl)-2-{[4-(4-methylpiperazin-1-yl)phenyl]amino}-8-(pyridin-2-yl)pyrimido[4,5-d]pyridazin-5(6H)-one] belongs 1.8 nM; to `COc1cc(N2CCC(N3CCN(C)CC3)CC2)ccc1Nc1ncc2c(=O)n(-c3c(Cl)cccc3Cl)nc(C)c2n1` [Example 363, 6-(2,6-dichlorophenyl)-2-({2-methoxy-4-[4-(4-methylpiperazin-1-yl)piperidin-1-yl]phenyl}amino)-8-methylpyrimido[4,5-d]pyridazin-5(6H)-one], 40 nM; to `Cc1nn(-c2c(Cl)cccc2Cl)c(=O)c2cnc(Nc3ccc4c(c3)CN(C)CC4(C)C)nc12` [Example 364, 6-(2,6-dichlorophenyl)-8-methyl-2-[(2,4,4-trimethyl-1,2,3,4-tetrahydroisoquinolin-7-yl)amino]pyrimido[4,5-d]pyridazin-5(6H)-one], 0.61 nM.
Consider `Cc1nn(-c2ncccc2Cl)c(=O)c2cnc(Nc3ccc4c(c3)CN(C)CC4(C)C)nc12` [Example 365, 6-(3-chloropyridin-2-yl)-8-methyl-2-[(2,4,4-trimethyl-1,2,3,4-tetrahydroisoquinolin-7-yl)amino]pyrimido[4,5-d]pyridazin-5(6H)-one], for which the affinity, expressed as Ki, was 2.9 nM.
`Cc1nn(-c2c(F)cccc2Cl)c(=O)c2cnc(Nc3ccc4c(c3)CC(N(C)C)C4)nc12` (centres unmarked) [Example 366, 6-(2-chloro-6-fluorophenyl)-2-{[2-(dimethylamino)-2,3-dihydro-1H-inden-5-yl]amino}-8-methylpyrimido[4,5-d]pyridazin-5(6H)-one] came in with a Ki of 0.53 nM.
